The nature of data set [1]: Risperidone release from ATRIGEL implants in rats (implant retrieval; 24-hour burst, 14-day and 28-day studies). The data set is classed as in vivo, Sprague-Dawley rats. Conditions: 28 days.
Procedure: The retrieved implants and tissue were placed in a −86° C. freezer for at least 1 hour. The frozen samples were lyophilized for at least 4 hours. The dry samples were minced with scissors, which were cleaned after each sample to minimize cross-contamination. The samples were minced until powder-like. Approximately 5 mL of 70:30 dimethylsulfoxide/methanol with 1% polyethyleneimine extraction solvent was added to each sample. The samples were mixed overnight at about 200 rpm at 37° C. on the orbital shaker. The samples were sonicated for 10 minutes. 1.5 mL of the extract was loaded into a 3 mL lure lock syringe and filtered through a 0.2 μm pore size filter into a clean test tube. 1 mL of the filtrate was placed into a clean test tube and 4 mL of 50:50 acetonitrile/H2O was added. The test tube was vortexed for 30 seconds. About 2 mL of the solution was loaded into a 3 mL lure lock syringe and filtered into an High Performance Liquid Chromatography vial.
Data set [2] can be described thus: Calculated risperidone release and plasma levels in dogs from in vitro release (in vitro to in vivo correlation). The note with it: suggested by calculated release and apomorphine data.
For data set [3] the following is noted: limit of solubility.
For data set [4] the following is noted: powder in polypropylene syringes, 5.8 to 31 KGy.
Procedure: The eight formulations prepared for testing were sterilized in glass vials and gamma resistant polypropylene copolymer syringes using various dose levels of irradiation.
The dose level was 30 to 33 KGy for each of the samples.
Syringes and glass vials obtained from the gamma radiation testing were analyzed with the control formulations.
These were loaded into gamma-irradiation polypropylene syringes and capped.

SMILES strings stand for the structures.

Turning to `Cc1nc2n(c(=O)c1CCN1CCC(c3noc4cc(F)ccc34)CC1)CCCC2` [Risperidone, 4-[2-[4-(6-fluorobenzo[d]isoxazol-3-yl)-1-piperidyl]ethyl]-3-methyl-2,6-diazabicyclo[4.4.0]deca-1,3-dien-5-one], the “stability of risperidone in ATRIGEL implants” value in data set [1] is given as “stable in ATRIGEL® implants for 28 days”. The “minimum daily dose of risperidone needed in dogs for a biological response” value in data set [2] is recorded as “about 0.6 mg”. Further, in data set [3], the “solubility in N-methyl-2-pyrrolidone” value is “up to 5 % by weight”. Moreover, the “color after gamma irradiation” value in data set [4] is listed as “turned beige at the lowest level of irradiation”.

The values are drawn from patent publication US10010612B2 (Indivior UK Limited, priority 2007, dated 2018).
